Counter-ions that a name gives are not always drawn. Some results are limits rather than exact numbers.

Here are results for 19 compounds from US9321776B2, “Isochromene derivatives as phoshoinositide 3-kinases inhibitors” (CHIESI FARMACEUTICI S.p.A., priority 2013, dated 2016).

Common to all, as to assay: PI3K enzyme inhibitory activity in the cell free assay (ADP-Glo Kinase Assay)
What all share (assay type): biochemical
Background: ADP-Glo first removes unused ATP, then detects ADP through luciferase.

In one experiment the target is T1, PI3Kα (Homo sapiens, UniProt P42336).
T1 construct: purchased Millipore Ltd (Billerica, Mass.)
The settings on record: human recombinant PI3Kα, ATP 50 μM; read-out: PI3K alpha inhibition.

For a further experiment, the target named is T2, PI3Kγ (Homo sapiens, UniProt P48736).
T2 construct: purchased Millipore Ltd (Billerica, Mass.)
The settings on record: human recombinant PI3Kγ, ATP 30 μM; read-out: PI3K gamma inhibition.

The next experiment deals with T3, PI3Kβ (Homo sapiens, UniProt P42338).
T3 construct: purchased Millipore Ltd (Billerica, Mass.)
The settings on record: human recombinant PI3Kβ, ATP 100 μM; read-out: PI3K beta inhibition.

The next experiment concerns the target T4, PI3Kδ (Homo sapiens, UniProt O00329).
T4 construct: purchased Millipore Ltd (Billerica, Mass.)
T4 sequence (O00329 1-1044): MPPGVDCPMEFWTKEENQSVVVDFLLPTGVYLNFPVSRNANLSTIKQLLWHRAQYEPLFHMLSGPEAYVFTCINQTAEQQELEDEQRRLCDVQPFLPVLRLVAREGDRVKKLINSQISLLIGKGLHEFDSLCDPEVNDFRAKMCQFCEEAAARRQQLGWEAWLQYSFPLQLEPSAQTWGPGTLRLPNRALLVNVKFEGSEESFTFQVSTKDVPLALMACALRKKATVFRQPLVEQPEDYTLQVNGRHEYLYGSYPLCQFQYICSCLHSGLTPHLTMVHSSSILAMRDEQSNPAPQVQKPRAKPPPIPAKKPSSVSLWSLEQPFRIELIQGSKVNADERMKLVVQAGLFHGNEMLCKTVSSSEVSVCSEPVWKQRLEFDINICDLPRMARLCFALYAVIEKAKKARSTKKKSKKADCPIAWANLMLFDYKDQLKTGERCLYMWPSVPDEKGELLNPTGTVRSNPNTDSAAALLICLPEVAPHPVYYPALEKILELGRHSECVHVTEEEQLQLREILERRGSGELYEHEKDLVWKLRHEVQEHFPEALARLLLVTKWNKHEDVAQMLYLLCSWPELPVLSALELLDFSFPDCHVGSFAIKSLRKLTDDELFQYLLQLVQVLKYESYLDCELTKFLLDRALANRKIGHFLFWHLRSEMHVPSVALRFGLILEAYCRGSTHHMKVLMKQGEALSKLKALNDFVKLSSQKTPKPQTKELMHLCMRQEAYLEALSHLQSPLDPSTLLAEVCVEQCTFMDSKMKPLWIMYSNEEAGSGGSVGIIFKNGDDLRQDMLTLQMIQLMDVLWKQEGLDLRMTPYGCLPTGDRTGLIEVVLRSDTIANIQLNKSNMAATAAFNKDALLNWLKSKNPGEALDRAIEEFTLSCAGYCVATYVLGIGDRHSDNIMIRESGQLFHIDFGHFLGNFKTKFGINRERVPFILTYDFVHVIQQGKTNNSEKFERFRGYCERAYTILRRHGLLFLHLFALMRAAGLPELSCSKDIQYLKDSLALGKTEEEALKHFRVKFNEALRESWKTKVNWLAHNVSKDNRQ
The settings on record: human recombinant PI3Kδ, ATP 80 μM; read-out: PI3K delta inhibition.

T2 sequence (P48736 whole entry): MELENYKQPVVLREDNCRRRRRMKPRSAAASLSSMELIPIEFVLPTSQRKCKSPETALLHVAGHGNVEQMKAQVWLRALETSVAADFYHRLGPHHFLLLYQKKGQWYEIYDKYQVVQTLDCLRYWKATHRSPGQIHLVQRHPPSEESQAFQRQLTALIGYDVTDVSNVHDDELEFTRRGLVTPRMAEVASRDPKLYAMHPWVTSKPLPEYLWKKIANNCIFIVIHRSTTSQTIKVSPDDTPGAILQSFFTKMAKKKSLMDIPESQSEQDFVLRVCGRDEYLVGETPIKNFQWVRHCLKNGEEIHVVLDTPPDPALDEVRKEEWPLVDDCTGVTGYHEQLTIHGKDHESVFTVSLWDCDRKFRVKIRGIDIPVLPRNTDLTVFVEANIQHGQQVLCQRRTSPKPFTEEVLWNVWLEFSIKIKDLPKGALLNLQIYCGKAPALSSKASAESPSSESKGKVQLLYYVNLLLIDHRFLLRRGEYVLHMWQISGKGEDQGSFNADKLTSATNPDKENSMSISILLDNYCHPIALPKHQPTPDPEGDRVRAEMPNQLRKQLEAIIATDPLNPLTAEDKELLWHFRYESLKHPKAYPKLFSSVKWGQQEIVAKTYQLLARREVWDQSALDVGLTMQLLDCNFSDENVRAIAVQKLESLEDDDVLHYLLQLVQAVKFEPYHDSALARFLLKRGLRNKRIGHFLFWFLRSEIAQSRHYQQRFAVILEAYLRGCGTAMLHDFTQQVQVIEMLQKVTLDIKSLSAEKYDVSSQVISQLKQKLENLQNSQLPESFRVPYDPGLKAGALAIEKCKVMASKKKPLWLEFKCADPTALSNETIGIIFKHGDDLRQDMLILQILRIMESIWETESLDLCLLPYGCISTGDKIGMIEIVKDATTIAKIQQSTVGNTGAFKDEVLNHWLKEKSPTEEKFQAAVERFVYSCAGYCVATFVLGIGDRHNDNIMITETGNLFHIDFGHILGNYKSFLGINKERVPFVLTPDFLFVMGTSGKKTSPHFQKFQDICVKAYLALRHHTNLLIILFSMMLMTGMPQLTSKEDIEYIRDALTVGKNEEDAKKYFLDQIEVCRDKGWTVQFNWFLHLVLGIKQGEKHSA
T1 sequence (P42336 whole entry): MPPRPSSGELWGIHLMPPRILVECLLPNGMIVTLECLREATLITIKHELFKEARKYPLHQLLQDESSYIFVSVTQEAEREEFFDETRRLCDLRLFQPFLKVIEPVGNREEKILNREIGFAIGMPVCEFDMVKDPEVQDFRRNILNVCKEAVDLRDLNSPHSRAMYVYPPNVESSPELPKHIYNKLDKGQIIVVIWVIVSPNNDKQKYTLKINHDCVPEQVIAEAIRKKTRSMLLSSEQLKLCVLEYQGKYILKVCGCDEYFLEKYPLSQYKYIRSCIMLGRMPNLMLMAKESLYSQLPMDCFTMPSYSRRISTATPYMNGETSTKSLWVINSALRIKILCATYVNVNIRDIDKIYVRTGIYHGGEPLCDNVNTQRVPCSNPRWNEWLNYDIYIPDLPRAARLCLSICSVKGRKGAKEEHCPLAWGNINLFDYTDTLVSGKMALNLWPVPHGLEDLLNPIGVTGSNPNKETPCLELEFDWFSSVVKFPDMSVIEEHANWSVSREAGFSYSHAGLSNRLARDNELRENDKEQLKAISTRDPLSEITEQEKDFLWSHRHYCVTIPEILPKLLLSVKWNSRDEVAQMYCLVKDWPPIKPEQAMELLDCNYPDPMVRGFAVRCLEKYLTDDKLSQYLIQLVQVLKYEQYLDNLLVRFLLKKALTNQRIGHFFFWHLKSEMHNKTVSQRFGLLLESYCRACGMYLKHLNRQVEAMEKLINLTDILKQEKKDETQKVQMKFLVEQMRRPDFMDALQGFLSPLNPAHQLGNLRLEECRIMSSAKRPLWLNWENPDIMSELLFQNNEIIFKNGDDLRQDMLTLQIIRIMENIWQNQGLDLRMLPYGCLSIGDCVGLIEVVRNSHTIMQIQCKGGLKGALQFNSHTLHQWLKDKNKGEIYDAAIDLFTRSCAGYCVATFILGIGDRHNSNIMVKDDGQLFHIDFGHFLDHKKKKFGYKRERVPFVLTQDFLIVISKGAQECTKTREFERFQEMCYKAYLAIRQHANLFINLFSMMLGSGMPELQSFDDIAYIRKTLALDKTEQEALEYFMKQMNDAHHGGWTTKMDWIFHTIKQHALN
T3 sequence (P42338 whole entry): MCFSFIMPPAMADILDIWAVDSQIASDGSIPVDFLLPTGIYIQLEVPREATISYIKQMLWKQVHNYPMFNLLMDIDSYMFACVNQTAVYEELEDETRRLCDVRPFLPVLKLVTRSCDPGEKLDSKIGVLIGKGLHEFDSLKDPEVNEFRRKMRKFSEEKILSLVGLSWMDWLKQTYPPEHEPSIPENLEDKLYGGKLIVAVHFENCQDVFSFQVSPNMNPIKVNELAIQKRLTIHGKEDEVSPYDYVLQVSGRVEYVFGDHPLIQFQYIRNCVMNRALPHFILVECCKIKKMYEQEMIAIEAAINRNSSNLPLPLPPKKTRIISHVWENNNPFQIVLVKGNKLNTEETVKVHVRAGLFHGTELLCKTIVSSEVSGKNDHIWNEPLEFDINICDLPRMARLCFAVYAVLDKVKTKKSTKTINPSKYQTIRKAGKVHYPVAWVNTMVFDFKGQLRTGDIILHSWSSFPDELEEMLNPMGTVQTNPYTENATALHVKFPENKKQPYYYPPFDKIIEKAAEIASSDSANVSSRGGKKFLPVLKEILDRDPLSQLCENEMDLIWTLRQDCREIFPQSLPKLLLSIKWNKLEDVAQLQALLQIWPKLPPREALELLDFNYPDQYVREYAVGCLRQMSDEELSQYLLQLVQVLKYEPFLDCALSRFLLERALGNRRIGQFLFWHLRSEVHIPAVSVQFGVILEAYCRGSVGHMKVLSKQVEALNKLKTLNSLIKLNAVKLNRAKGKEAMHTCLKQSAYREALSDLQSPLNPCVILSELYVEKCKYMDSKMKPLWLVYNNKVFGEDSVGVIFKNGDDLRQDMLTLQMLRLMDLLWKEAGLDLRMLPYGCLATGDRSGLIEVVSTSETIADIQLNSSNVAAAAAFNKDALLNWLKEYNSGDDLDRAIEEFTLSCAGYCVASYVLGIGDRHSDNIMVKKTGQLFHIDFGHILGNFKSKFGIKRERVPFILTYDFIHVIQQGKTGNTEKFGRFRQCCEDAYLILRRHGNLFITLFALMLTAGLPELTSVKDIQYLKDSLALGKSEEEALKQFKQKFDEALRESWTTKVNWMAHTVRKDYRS

On to `CC(c1oc(=O)c2ccccc2c1-c1ccc(CN2CCOCC2)s1)n1nc(-c2cc(O)cc(F)c2)c2c(N)ncnc21` (single isomer, unassigned) [Example 49a, 3-(1-(4-amino-3-(3-fluoro-5-hydroxyphenyl)-1H-pyrazolo[3,4-d]pyrimidin-1-yl)ethyl)-4-(5-(morpholinomethyl)thiophen-2-yl)-1H-isochromen-1-one hydrochloride], for which the IC50 was 10 to 1000 nM on PI3Kα, 10 to 1000 nM on PI3Kγ, 10 to 1000 nM at PI3Kβ and less than 10 nM on PI3Kδ.

`CC(c1oc(=O)c2ccccc2c1C1=CCCN(Cc2ccccc2)C1)n1nc(-c2cc(O)cc(F)c2)c2c(N)ncnc21` (single isomer, unassigned) [Example 169b, 3-(1-(4-amino-3-(3-fluoro-5-hydroxyphenyl)-1H-pyrazolo[3,4-d]pyrimidin-1-yl)ethyl)-4-(1-benzyl-1,2,5,6-tetrahydropyridin-3-yl)-1H-isochromen-1-one hydrochloride single enantiomers]: the IC50 on PI3Kα was more than 1000 nM; on PI3Kβ, 10 to 1000 nM.

Regarding `O=c1oc(CNc2ncnc3[nH]cnc23)c(-c2ccccc2)c2ccccc12` [Example 29, 3-((9H-Purin-6-ylamino)methyl)-4-phenyl-1H-isochromen-1-one], the results for the IC50 at PI3Kα and on PI3Kγ were more than 1000 nM and 10 to 1000 nM, respectively.

In the case of `Cc1cccc(-c2c(C(C)n3nc(-c4cn[nH]c4)c4c(N)ncnc43)oc(=O)c3ccccc23)c1` (centres unmarked) [Example 42, 3-(1-(4-Amino-3-(1H-pyrazol-4-yl)-1H-pyrazolo[3,4-d]pyrimidin-1-yl)ethyl)-4-m-tolyl-1H-isochromen-1-one], the values for the IC50 on PI3Kα, at PI3Kγ and on PI3Kδ were more than 1000 nM, 10 to 1000 nM and less than 10 nM, respectively.

With `CC(Nc1ncnc(N)c1C#N)c1oc(=O)c2ccccc2c1-c1ccc(CN2CCOCC2)s1` (centres unmarked) [Example 82, 4-amino-6-((1-(4-(5-(morpholinomethyl)thiophen-2-yl)-1-oxo-1H-isochromen-3-yl)ethyl)amino)pyrimidine-5-carbonitrile hydrochloride], the figures for the IC50 at PI3Kγ, on PI3Kβ and at PI3Kδ were 10 to 1000 nM, more than 1000 nM and less than 10 nM, respectively.

Turning to `CC(c1oc(=O)c2ccccc2c1-c1ccccc1)n1nc(-c2cncc(NS(=O)(=O)c3ccc(F)cc3)c2)c2c(N)ncnc21` (centres unmarked) [Example 87, N-(5-(4-amino-1-(1-(1-oxo-4-phenyl-1H-isochromen-3-yl)ethyl)-1H-pyrazolo[3,4-d]pyrimidin-3-yl)pyridin-3-yl)-4-fluorobenzenesulfonamide], the IC50 at PI3Kα, on PI3Kγ and at PI3Kδ was 10 to 1000 nM throughout.

As for `CC(c1oc(=O)c2ccccc2c1-c1ccccc1)n1nc(-c2cncc(N)c2)c2c(N)ncnc21` (centres unmarked) [Example 88, 3-(1-(4-amino-3-(5-aminopyridin-3-yl)-1H-pyrazolo[3,4-d]pyrimidin-1-yl)ethyl)-4-phenyl-1H-isochromen-1-one hydrochloride], the IC50 at PI3Kγ is more than 1000 nM; at PI3Kβ, 10 to 1000 nM; on PI3Kδ it was 10 to 1000 nM.

In the case of `CC(c1oc(=O)c2ccccc2c1-c1ccccc1)n1nc(C(F)(F)F)c2c(N)ncnc21` (centres unmarked) [Example 104, 3-(1-(4-amino-3-(trifluoromethyl)-1H-pyrazolo[3,4-d]pyrimidin-1-yl)ethyl)-4-phenyl-1H-isochromen-1-one], the IC50 at PI3Kγ was more than 1000 nM; on PI3Kβ, more than 1000 nM; at PI3Kδ, 10 to 1000 nM.

For the compound `Cc1nn(C(C)c2oc(=O)c3ccccc3c2-c2ccccc2)c2ncnc(N)c12` (centres unmarked) [Example 105, 3-(1-(4-amino-3-methyl-1H-pyrazolo[3,4-d]pyrimidin-1-yl)ethyl)-4-phenyl-1H-isochromen-1-one], the values for the IC50 on PI3Kγ, at PI3Kβ and at PI3Kδ were 10 to 1000 nM, 10 to 1000 nM and less than 10 nM, respectively.

Take `CC(c1oc(=O)c2ccccc2c1-c1ccccc1)n1nc(-c2cc[nH]n2)c2c(N)ncnc21` (centres unmarked) [Example 111, 3-(1-(4-amino-3-(1H-pyrazol-3-yl)-1H-pyrazolo[3,4-d]pyrimidin-1-yl)ethyl)-4-phenyl-1H-isochromen-1-one]: the IC50 was more than 1000 nM at PI3Kα, 10 to 1000 nM on PI3Kγ and 10 to 1000 nM at PI3Kδ.

As for `CC(c1oc(=O)c2ccccc2c1-c1ccccc1)n1nc(-c2cccc3[nH]ncc23)c2c(N)ncnc21` (centres unmarked) [Example 112, 3-(1-(4-amino-3-(1H-indazol-4-yl)-1H-pyrazolo[3,4-d]pyrimidin-1-yl)ethyl)-4-phenyl-1H-isochromen-1-one], the IC50 on PI3Kγ is 10 to 1000 nM; on PI3Kβ, more than 1000 nM; at PI3Kδ, 10 to 1000 nM.

For `CC(c1oc(=O)c2ccccc2c1-c1ccc(CN2CCNCC2)cc1)n1nc(-c2cc(O)cc(F)c2)c2c(N)ncnc21` (centres unmarked) [Example 125, 3-(1-(4-amino-3-(3-fluoro-5-hydroxyphenyl)-1H-pyrazolo[3,4-d]pyrimidin-1-yl)ethyl)-4-(4-(piperazin-1-ylmethyl)phenyl)-1H-isochromen-1-one dihydrochloride], the results for the IC50 at PI3Kγ, at PI3Kβ and on PI3Kδ were more than 1000 nM, more than 1000 nM and 10 to 1000 nM, respectively.

Regarding `CC(c1oc(=O)c2ccccc2c1C1=CCN(Cc2ccccc2)CC1)n1nc(-c2cc(O)cc(F)c2)c2c(N)ncnc21` (centres unmarked) [Example 131, 3-(1-(4-amino-3-(3-fluoro-5-hydroxyphenyl)-1H-pyrazolo[3,4-d]pyrimidin-1-yl)ethyl)-4-(1-benzyl-1,2,3,6-tetrahydropyridin-4-yl)-1H-isochromen-1-one hydrochloride], the IC50 was more than 1000 nM on PI3Kγ, more than 1000 nM on PI3Kβ and 10 to 1000 nM at PI3Kδ.

Turning to `CC(c1oc(=O)c2ccccc2c1-c1cccc(CN2CCCCC2)c1)n1nc(-c2cc(O)cc(F)c2)c2c(N)ncnc21` (centres unmarked) [Example 143, 3-(1-(4-amino-3-(3-fluoro-5-hydroxyphenyl)-1H-pyrazolo[3,4-d]pyrimidin-1-yl)ethyl)-4-(3-(piperidin-1-ylmethyl)phenyl)-1H-isochromen-1-one, Formate], the IC50 at PI3Kγ was more than 1000 nM; on PI3Kβ, 10 to 1000 nM; on PI3Kδ it was 10 to 1000 nM.

Take `CC(c1oc(=O)c2ccccc2c1C#CCN(C)C)n1nc(-c2cc(O)cc(F)c2)c2c(N)ncnc21` (centres unmarked) [Example 158, 3-(1-(4-amino-3-(3-fluoro-5-hydroxyphenyl)-1H-pyrazolo[3,4-d]pyrimidin-1-yl)ethyl)-4-(3-(dimethylamino)prop-1-yn-1-yl)-1H-isochromen-1-one hydrochloride]: the IC50 on PI3Kα, on PI3Kβ and on PI3Kδ was 10 to 1000 nM in each case.

With `Cc1c(O)cncc1-c1nn(C(C)c2oc(=O)c3ccccc3c2-c2ccccc2)c2ncnc(N)c12` (centres unmarked) [Example 159, 3-(1-(4-amino-3-(5-hydroxy-4-methylpyridin-3-yl)-1H-pyrazolo[3,4-d]pyrimidin-1-yl)ethyl)-4-phenyl-1H-isochromen-1-one], the IC50 on PI3Kγ is 10 to 1000 nM; at PI3Kβ, more than 1000 nM; at PI3Kδ, 10 to 1000 nM.

For the compound `Cc1ncc(O)cc1-c1nn(C(C)c2oc(=O)c3ccccc3c2-c2ccccc2)c2ncnc(N)c12` (centres unmarked) [Example 160, 3-(1-(4-amino-3-(5-hydroxy-2-methylpyridin-3-yl)-1H-pyrazolo[3,4-d]pyrimidin-1-yl)ethyl)-4-phenyl-1H-isochromen-1-one], the IC50 at PI3Kγ was 10 to 1000 nM; at PI3Kβ it was 10 to 1000 nM; at PI3Kδ, less than 10 nM.

Take `Cc1ccc2c(-c3ccccc3)c(C(C)n3nc(-c4cc(O)cc(F)c4)c4c(N)ncnc43)oc(=O)c2c1` (centres unmarked) [Example 162, 3-(1-(4-amino-3-(3-fluoro-5-hydroxyphenyl)-1H-pyrazolo[3,4-d]pyrimidin-1-yl)ethyl)-7-methyl-4-phenyl-1H-isochromen-1-one]: the IC50 on PI3Kα was more than 1000 nM; at PI3Kγ it was 10 to 1000 nM; at PI3Kδ, 10 to 1000 nM.

Take `Nc1ncnc2c1c(I)nn2Cc1oc(=O)c2ccccc2c1-c1ccccc1` [Int D1, 3-((4-Amino-3-iodo-1H-pyrazolo[3,4-d]pyrimidin-1-yl)methyl)-4-phenyl-1H-isochromen-1-one]: the IC50 on PI3Kγ is 10 to 1000 nM; at PI3Kβ, more than 1000 nM; on PI3Kδ, 10 to 1000 nM.
